Experimental data: patent US10538555B2, “Macrocyclic inhibitors of the PD-1/PD-L1 and CD80(B7-1)/PD-L1 protein/protein interactions” (BRISTOL-MYERS SQUIBB COMPANY, priority 2014, dated 2020)
Where a SMILES comes first, the peptide text is derived from it. Bridges are numbered along the chain shown (N, C = ends). [ ]: non-standard residue; d: D form. Hyp = O=C(O)[C@@H]1C[C@@H](O)CN1; NMeNle = CCCC[C@H](NC)C(=O)O; NMeA = CN[C@@H](C)C(=O)O; Dab = NCC[C@H](N)C(=O)O

The compounds below were run against T1, Human PD-L1/PD-1 (Homo sapiens, UniProt Q9NZQ7) (assay: HTRF Human PD-L1/PD-1 binding assay (PD-1-Ig/PD-L1-His)). Settings: PD-L1-His 10 nM, PD-1-Ig 20 nM; class symbol; read-out: HTRF Human PD-L1/PD-1 Binding Assay IC50 Range.
T1 construct: TVMV protease cleavage site (C); made in house; host or cells: HEK293T cells
T1 sequence (Q9NZQ7 with tags, fused parts or gaps): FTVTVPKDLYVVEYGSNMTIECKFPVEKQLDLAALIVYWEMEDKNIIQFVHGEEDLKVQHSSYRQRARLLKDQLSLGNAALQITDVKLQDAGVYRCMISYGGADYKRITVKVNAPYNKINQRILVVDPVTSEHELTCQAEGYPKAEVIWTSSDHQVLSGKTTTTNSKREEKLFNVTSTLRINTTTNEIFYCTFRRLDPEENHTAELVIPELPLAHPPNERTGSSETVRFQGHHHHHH
Source text: Methods for Testing the Ability of Macrocyclic Peptides to Compete for the Binding of PD-1 to PD-L1 Using Homogenous Time-Resolved Fluorescence (HTRF) Binding Assays
The ability of the macrocyclic peptides of the present disclosure to bind to PD-L1 was investigated using a PD-1/PD-L1 Homogenous Time-Resolved Fluorescence (HTRF) binding assay.
Homogenous Time-Resolved Fluorescence (HTRF) Assays of Binding of Soluble PD-1 to Soluble PD-L1. Soluble PD-1 and soluble PD-L1 refers to proteins with carboxyl-end truncations that remove the transmembrane-spanning regions and are fused to heterologous sequences, specifically the Fc portion of the human immunoglobuling G sequence (Ig) or the hexahistidine epitope tag (His). All binding studies were performed in an HTRF assay buffer consisting of dPBS supplemented with 0.1% (w/v) bovine serum albumin and 0.05% (v/v) Tween-20. For the PD-1-Ig/PD-L1-His binding assay, inhibitors were pre-incubated with PD-L1-His (10 nM final) for 15 m in 4 μl of assay buffer, followed by addition of PD-1-Ig (20 nM final) in 1 μl of assay buffer and further incubation for 15 m. PD-L1 fusion proteins from either human, cynomolgus macaques, or mouse were used. HTRF detection was achieved using europium crypate-labeled anti-Ig monoclonal antibody (1 nM final) and allophycocyanin (APC) labeled anti-His monoclonal antibody (20 nM final). Antibodies were diluted in HTRF detection buffer and 5 μl was dispensed on top of binding reaction. The reaction was allowed to equilibrate for 30 minutes and signal (665 nm/620 nm ratio) was obtained using an EnVision fluorometer. Additional binding assays were established between PD-1-Ig/PD-L2-His (20 and 5 nM, respectively), CD80-His/PD-L1-Ig (100 and 10 nM, respectively) and CD80-His/CTLA4-Ig (10 and 5 nM, respectively). Competition studies between biotinylated Compound No. 71 and human PD-L1-His were performed as follows. Macrocyclic peptide inhibitors were pre-incubated with PD-L1-His (10 nM final) for 60 minutes in 4 μl of assay buffer followed by addition of biotinylated Compound No. 71 (0.5 nM final) in 1 μl of assay buffer. Binding was allowed to equilibrate for 30 minutes followed by addition of europium crypated labeled Streptavidin (2.5 pM final) and APC-labeled anti-His (20 nM final) in 5 μl of HTRF buffer. The reaction was allowed to equilibrate for 30 m and signal (665 nm/620 nm ratio) was obtained using an EnVision fluorometer.
Recombinant Proteins. Carboxyl-truncated human PD-1 (amino acids 25-167) with a C-terminal human Ig epitope tag [hPD-1 (25-167)-3S-IG] and human PD-L1 (amino acids 18-239) with a C-terminal His epitope tag [hPD-L1([…])-tobacco vein mottling virus protease cleavage site (TVMV)-His] were expressed in HEK293T cells and purified sequentially by rProteinA affinity chromatography and size exclusion chromatography.

Compared with `CCCC[C@H]1C(=O)N(C)CC(=O)N[C@@H](CC(=O)O)C(=O)NC(C(C)c2ccccc2)C(=O)N(C)[C@@H](Cc2ccccc2)C(=O)N[C@@H](Cc2ccc(O)cc2)C(=O)N(C)CC(=O)N[C@@H](Cc2c[nH]c3ccccc23)C(=O)N[C@@H](Cc2ccc(O)cc2)C(=O)N[C@@H](CC(C)C)C(=O)N[C@H](C(=O)NCC(N)=O)CSCC(=O)N[C@@H](Cc2ccccc2)C(=O)N(C)[C@@H](Cc2ccccc2)C(=O)N1C` (single isomer, unassigned) [Example 3230-A], `CCCC[C@H]1C(=O)N(C)CC(=O)N[C@@H](CC(=O)O)C(=O)N[C@@H](C(C)C)C(=O)N(C)[C@@H](Cc2ccccc2)C(=O)N[C@@H](Cc2ccc(O)cc2)C(=O)N(C)CC(=O)NC(C)(Cc2c[nH]c3ccccc23)C(=O)N[C@@H](Cc2ccc(O)cc2)C(=O)N[C@@H](CC(C)C)C(=O)N[C@H](C(=O)NCC(N)=O)CSCC(=O)N[C@@H](Cc2ccccc2)C(=O)N(C)[C@@H](Cc2ccccc2)C(=O)N1C` (single isomer, unassigned) [Example 3640-A] is lower in IC50: 1000 to 10000 nM for the first, 100 to 990 nM for the second.

`CCCC[C@H]1C(=O)N(C)CC(=O)N[C@@H](CC(=O)O)C(=O)NC(C(C)c2ccccc2)C(=O)N(C)[C@@H](Cc2ccccc2)C(=O)N[C@@H](Cc2ccc(O)cc2)C(=O)N(C)CC(=O)N[C@@H](Cc2c[nH]c3ccccc23)C(=O)N[C@@H](Cc2ccc(O)cc2)C(=O)N[C@@H](CC(C)C)C(=O)N[C@H](C(=O)NCC(N)=O)CSCC(=O)N[C@@H](Cc2ccccc2)C(=O)N(C)[C@@H](Cc2ccccc2)C(=O)N1C` (single isomer, unassigned) [Example 3230-B] and `CCCC[C@H]1C(=O)N(C)CC(=O)N[C@@H](CC(=O)O)C(=O)N[C@@H](C(C)C)C(=O)N(C)[C@@H](Cc2ccccc2)C(=O)N[C@@H](Cc2ccc(O)cc2)C(=O)N(C)CC(=O)NC(C)(Cc2c[nH]c3ccccc23)C(=O)N[C@@H](Cc2ccc(O)cc2)C(=O)N[C@@H](CC(C)C)C(=O)N[C@H](C(=O)NCC(N)=O)CSCC(=O)N[C@@H](Cc2ccccc2)C(=O)N(C)[C@@H](Cc2ccccc2)C(=O)N1C` (single isomer, unassigned) [Example 3640-B] fall in the same range of IC50: 100 to 990 nM for the first, 100 to 990 nM for the second.

Compared with `CCCC[C@H]1C(=O)N(C)CC(=O)N[C@@H](CC(=O)O)C(=O)NC(C(C)c2ccccc2)C(=O)N(C)[C@@H](Cc2ccccc2)C(=O)N[C@@H](Cc2ccc(O)cc2)C(=O)N(C)CC(=O)N[C@@H](Cc2c[nH]c3ccccc23)C(=O)N[C@@H](Cc2ccc(O)cc2)C(=O)N[C@@H](CC(C)C)C(=O)N[C@H](C(=O)NCC(N)=O)CSCC(=O)N[C@@H](Cc2ccccc2)C(=O)N(C)[C@@H](Cc2ccccc2)C(=O)N1C` (single isomer, unassigned) [Example 3230-C], `CCCC[C@H]1C(=O)N(C)CC(=O)N[C@@H](CC(N)=O)C(=O)N[C@@H](C(C)C)C(=O)N(C)[C@@H](Cc2ccccc2)C(=O)N[C@@H](Cc2ccc(O)cc2)C(=O)N(C)CC(=O)N[C@@H](Cc2c[nH]c3ccccc23)C(=O)N[C@@H](Cc2ccc(O)cc2)C(=O)N[C@@H](CCCN)C(=O)N[C@H](C(=O)NCC(N)=O)CSCC(=O)N[C@@H](Cc2ccccc2)C(=O)N(C)[C@@H](Cc2ccncc2)C(=O)N1C` (single isomer, unassigned) [Example 3638-A] is higher in IC50: 100 to 990 nM for the first, 1000 to 10000 nM for the second.

`CCCC[C@H]1C(=O)N(C)CC(=O)N[C@@H](CC(N)=O)C(=O)N[C@@H](C(C)C)C(=O)N(C)[C@@H](Cc2ccccc2)C(=O)N[C@@H](Cc2ccc(O)cc2)C(=O)N(C)CC(=O)N[C@@H](Cc2c[nH]c3ccccc23)C(=O)N[C@@H](Cc2ccc(O)cc2)C(=O)N[C@@H](CCCN)C(=O)N[C@H](C(=O)NCC(N)=O)CSCC(=O)N[C@@H](Cc2ccccc2)C(=O)N(C)[C@@H](Cc2ccncc2)C(=O)N1C` (single isomer, unassigned) [Example 3638-B] and `CCCC[C@H]1C(=O)N(C)[C@@H](CCCC)C(=O)N[C@@H](C)C(=O)N[C@H](C(=O)NCC(N)=O)CSCC(=O)N[C@@H](Cc2ccc(O)cc2)C(=O)N(C)[C@@H](C)C(=O)N[C@@H](CC(N)=O)C(=O)N2CCC[C@H]2C(=O)N[C@@H](Cc2cnc[nH]2)C(=O)N[C@@H](CCN)C(=O)N2C[C@H](O)C[C@H]2C(=O)N[C@@H](Cc2c[nH]c3ccccc23)C(=O)N[C@@H](CO)C(=O)N[C@@H](Cc2c[nH]c3ccccc23)C(=O)N1C` [Example 1245] fall in the same range of IC50: 10 to 99.9 nM for the first, 10 to 99.9 nM for the second.

First: CCCC[C@H]1C(=O)N(C)[C@@H](CCCC)C(=O)N[C@@H](CN)C(=O)N[C@H](C(=O)NCC(N)=O)CSCC(=O)N[C@@H](Cc2ccc(O)cc2)C(=O)N(C)[C@@H](C)C(=O)N[C@@H](CC(=O)O)C(=O)N2CCC[C@H]2C(=O)N[C@@H](Cc2c[nH]cn2)C(=O)N[C@@H](CCC(=O)O)C(=O)N2C[C@H](O)C[C@H]2C(=O)N[C@@H](Cc2c[nH]c3ccccc23)C(=O)N[C@@H](CCN)C(=O)N[C@@H](Cc2cn(CC(=O)O)c3ccccc23)C(=O)N1C (single isomer, unassigned) [Example 5203]
Second: CCCC[C@H]1C(=O)N(C)[C@@H](CCCC)C(=O)N[C@@H](C)C(=O)N[C@H](C(=O)NCC(N)=O)CSCC(=O)N[C@@H](Cc2ccc(O)cc2)C(=O)N(C)[C@@H](C)C(=O)N[C@@H](CCC(=O)O)C(=O)N2CCC[C@H]2C(=O)N[C@@H](Cc2cnc[nH]2)C(=O)N[C@@H](CCN)C(=O)N2C[C@H](O)C[C@H]2C(=O)N[C@@H](Cc2c[nH]c3ccccc23)C(=O)N[C@@H](CO)C(=O)N[C@@H](Cc2c[nH]c3ccccc23)C(=O)N1C [Example 1248] ({CH2CO}-Y[NMeA]EPH[Dab][Hyp]WSW[NMeNle][NMeNle]ACG-NH2; thioether N-14)
The IC50 of the first is lower: 1 to 9.9 nM for the first, 10 to 99.9 nM for the second. The first is the more potent here.

Compared with `CCCC[C@H]1C(=O)N(C)[C@@H](CCCC)C(=O)N[C@@H](CCCN)C(=O)N[C@H](C(=O)NCC(N)=O)CSCC(=O)N[C@@H](Cc2ccc(O)cc2)C(=O)N2CCC(C)(C)[C@H]2C(=O)N[C@@H](CC(N)=O)C(=O)N2CCCC2C(=O)N[C@@H](Cc2cnc[nH]2)C(=O)N[C@@H](CC(C)C)C(=O)N2C[C@H](O)C[C@H]2C(=O)N[C@@H](Cc2c[nH]c3ccccc23)C(=O)N[C@@H](CO)C(=O)N[C@@H](Cc2c[nH]c3ccccc23)C(=O)N1C` (some centres unmarked) [Example 1240], `CCCC[C@H]1C(=O)N(C)[C@@H](CCCC)C(=O)N[C@@H](C)C(=O)N[C@H](C(=O)NCC(N)=O)CSCC(=O)N[C@@H](Cc2ccc(O)cc2)C(=O)N(C)[C@@H](C)C(=O)N[C@@H](CC(=O)O)C(=O)N2CCC[C@H]2C(=O)N[C@@H](Cc2cnc[nH]2)C(=O)N[C@@H](CCCCN)C(=O)N2C[C@H](O)C[C@H]2C(=O)N[C@@H](Cc2c[nH]c3ccccc23)C(=O)N[C@@H](CO)C(=O)N[C@@H](Cc2c[nH]c3ccccc23)C(=O)N1C` [Example 1247] ({CH2CO}-Y[NMeA]DPHK[Hyp]WSW[NMeNle][NMeNle]ACG-NH2; thioether N-14) is lower in IC50: 1000 to 10000 nM for the first, 10 to 99.9 nM for the second. The second is the more potent here.

Same assay, conditions: PD-L1-His 10 nM, PD-1-Ig 20 nM; read-out: HTRF Human PD-L1/PD-1 Binding Assay IC50

Compared with `CCCC[C@H]1C(=O)N(C)CC(=O)N[C@@H](CC(=O)O)C(=O)NC(C(C)c2ccccc2)C(=O)N(C)[C@@H](Cc2ccccc2)C(=O)N[C@@H](Cc2ccc(O)cc2)C(=O)N(C)CC(=O)N[C@@H](Cc2c[nH]c3ccccc23)C(=O)N[C@@H](Cc2ccc(O)cc2)C(=O)N[C@@H](CC(C)C)C(=O)N[C@H](C(=O)NCC(N)=O)CSCC(=O)N[C@@H](Cc2ccccc2)C(=O)N(C)[C@@H](Cc2ccccc2)C(=O)N1C` (single isomer, unassigned) [Example 3230-D], `CCCC[C@H]1C(=O)N(C)[C@@H](CCCC)C(=O)N[C@@H](CCCN)C(=O)N[C@H](C(=O)NCC(N)=O)CSCC(=O)N[C@@H](Cc2ccc(O)cc2)C(=O)N2CCC[C@]2(C)C(=O)N[C@@H](CC(N)=O)C(=O)N2CCCC2C(=O)N[C@@H](Cc2cnc[nH]2)C(=O)N[C@@H](CC(C)C)C(=O)N2C[C@H](O)C[C@H]2C(=O)N[C@@H](Cc2c[nH]c3ccccc23)C(=O)N[C@@H](CO)C(=O)N[C@@H](Cc2c[nH]c3ccccc23)C(=O)N1C` (some centres unmarked) [Example 1241] is 10-fold lower in IC50: 10000 nM for the first, 1000 nM for the second. The second is the more potent here.
